Measurements taken from the NIST ThermoML archive (doi:10.1016/j.fluid.2007.05.026).
± gives the expanded uncertainty stated by the source.

What was measured:
[1] = for mass density: 101.33 kPa, Vibrating tube method; for Normal melting temperature: visual observation
[2] = refractive index (Na D-line) (dimensionless); conditions: 101.33 kPa, Liquid, Standard Abbe refractometry

Oc1ccccc1 [phenol]
mass density ([1]; 314.45 K, Liquid): 1061 ± 1 kg/m3 | Normal melting temperature ([1]; Crystal): 41.30 ± 0.5 °C | refractive index ([2]; 314.45 K): 1.5425 ± 0.0007

Oc1ccc(O)cc1 [1,4-benzenediol]
mass density ([1]; 298.15 K, Crystal): 1338 ± 2 kg/m3 | Normal melting temperature ([1]; Crystal): 171.40 ± 0.5 °C

CC(=O)CC(C)C [4-methylpentan-2-one]
mass density ([1]; 298.15 K, Liquid): 799.8 ± 0.3 kg/m3 | Normal boiling temperature ([1]; Liquid, Manometric method): 117.60 ± 0.1 °C | refractive index ([2]; 298.15 K): 1.396 ± 0.0008
